From US5300512A, “Benzimidazole compounds” (G. D. Searle & Co., priority 1992, dated 1994)
pEC50, pIC50, pKi: −log10 of the molar value.

How the values were obtained:
5-HT3 = experiment: Bezold-Jarisch reflex: reduction of 5-HT-induced bradycardia in anesthetized mice; type: in vivo; details: i.p., 30 min before 5-HT 0.25 mg/kg i.v.; >50% reduction of bradycardia considered significant
Method: (§1) 5-HT4 agonist activity was determined in the in vitro rat tunica muscularis mucosae (TMM) assay. (Baxter et al., Naunyn Schmied Arch. Pharmacol, 1991, 343, 439). The 5-HT4 agonist or antagonist and/or 5-HT3 antagonist activity of the compounds of the invention can be determined by these assays described herein, without undue experimentation.
The compound to be evaluated was administered i.p. (mg/kg) to a group of 3 mice. […] This method has been described by Saxena, P. R. and Lawang, A., Arch. Int. Pharmacodyn., 277: 235-252, 1985.

5-HT3 receptor = molecular target: T1, 5-HT3 receptor (Rattus norvegicus, UniProt P35563); experiment: [3H]-GR65630 radioligand binding to 5-HT3 receptor, rat brain cortex membranes
T1 construct: Brain cortices were obtained from male rats and a membrane fraction prepared by standard techniques; from tissue; host or cells: rat brain cortex, membrane fraction
T1 sequence (P35563 24-483): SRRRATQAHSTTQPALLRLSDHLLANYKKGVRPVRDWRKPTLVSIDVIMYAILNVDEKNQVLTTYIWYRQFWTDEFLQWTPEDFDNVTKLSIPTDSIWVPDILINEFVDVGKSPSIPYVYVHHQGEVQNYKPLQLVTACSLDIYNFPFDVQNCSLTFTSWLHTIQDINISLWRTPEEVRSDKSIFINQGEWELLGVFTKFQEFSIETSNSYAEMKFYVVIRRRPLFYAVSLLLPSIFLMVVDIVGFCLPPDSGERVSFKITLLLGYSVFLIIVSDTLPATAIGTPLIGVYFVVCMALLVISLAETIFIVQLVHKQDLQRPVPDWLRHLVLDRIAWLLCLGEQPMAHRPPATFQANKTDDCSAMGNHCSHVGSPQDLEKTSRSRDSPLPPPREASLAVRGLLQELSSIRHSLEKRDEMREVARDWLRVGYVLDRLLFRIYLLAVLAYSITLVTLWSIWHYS
Method: as §1
GR65630 binds to the 5-HT3 receptor. Brain cortices were obtained from male rats and a membrane fraction prepared by standard techniques. 0.04 mg of membrane prep was incubated with 0.2 nM […] for 60 minutes at 22° C. […] Membranes were filtered and washed 3 times and the filters were counted to determine [3H]-GR65630 specifically bound. (Kilpatrick G. J., Jones B. J. and Tyers M. B. Identification and distribution of 5-HT3 receptors in rat brain using radioligand binding. Nature, 330: 746-748, 1987).

5-HT4 receptor = molecular target: T2, 5-HT4 receptor (Rattus norvegicus, UniProt Q62758); experiment: In vitro functional assay for serotonin 5-HT4 agonism: rat TMM (relaxation of carbachol-contracted tunica muscularis mucosae); type: biochemical; details: rat esophagus, carbachol (3 μM) contracted, 37° C, tissues from 5 rats
T2 construct: The inner tunica muscularis mucosa was mounted under 0.2-0.3 g of tension in a tissue bath; from tissue; host or cells: rat intrathoracic esophagus, tunica muscularis mucosae
Method: as §1
Agonist activity was determined utilizing relaxation of carbachol-contracted rat tunica muscularis mucosae. One 2 cm segment of intrathoracic esophagus proximal to the diaphragm was removed from male rats, weighing approximately 300 gm, and the outer muscle layers removed. The inner tunica muscularis mucosa was mounted under 0.2-0.3 g of tension in a tissue bath containing oxygenated Tyrode's solution at 37° C. […] Following a 30 min equilibrium period, tissues were isometrically contracted with carbachol (3 μM) to obtain a tonic contraction. A stable plateau was obtained within 20 min when test compound was added cumulatively to relax the muscle strip. EC50 values were obtained for each agonist in tissues from 5 rats.

T2 sequence (Q62758 whole entry): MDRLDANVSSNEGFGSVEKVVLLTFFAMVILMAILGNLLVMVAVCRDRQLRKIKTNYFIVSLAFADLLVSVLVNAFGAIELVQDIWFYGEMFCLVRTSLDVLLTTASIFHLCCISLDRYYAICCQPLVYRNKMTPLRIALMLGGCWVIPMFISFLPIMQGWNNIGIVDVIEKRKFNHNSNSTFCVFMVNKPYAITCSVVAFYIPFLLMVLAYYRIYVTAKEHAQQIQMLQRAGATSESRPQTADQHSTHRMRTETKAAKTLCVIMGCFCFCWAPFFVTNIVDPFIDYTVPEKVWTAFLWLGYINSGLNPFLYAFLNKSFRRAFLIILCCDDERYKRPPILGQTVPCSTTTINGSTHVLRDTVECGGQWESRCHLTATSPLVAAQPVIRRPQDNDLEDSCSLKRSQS

CN1C2CCCC1CC(NC(=O)c1nn(C)c3ccccc13)C2 (stereo not shown) [BRL-43694]
Minimum Effective Dose (MED) (5-HT3): 0.05 mg/kg

CC(C)n1c(=O)n(C(=O)NCC23CCN(CC2)CC3)c2ccccc21 [Example 10, N-(1-azabicyclo[2.2.2]octan-4-ylmethyl)-2,3-dihydro-3-(1-methylethyl)-2-oxo-1H-benzimidazole-1-carboxamide]
pIC50 (5-HT3 receptor; [3H]-GR65630 bound (0.2 nM)): 8.07 | pKi (5-HT3 receptor; [3H]-GR65630 bound (0.2 nM)): 8.37 | Minimum Effective Dose (MED) (5-HT3): 0.03 mg/kg | pEC50 (5-HT4 receptor): 6.90

Cc1[nH]cnc1CCC(=O)c1cn(C)c2ccccc12 [GR65630]
% Specific Binding (5-HT3 receptor; [3H]-GR65630, non-specific binding with 1 uM ICS 205-930): 70%

CN1C2CCC1CC(OC(=O)c1c[nH]c3ccccc13)C2 (stereo not shown) [ICS 205-930]
Hill Coefficient (5-HT3 receptor; [3H]-GR65630 bound (0.2 nM)): 1.0

c1ccc2nc(N3CCNCC3)ccc2c1 [Quipazine]
Hill Coefficient (5-HT3 receptor; [3H]-GR65630 bound (0.2 nM)): 0.86

COc1ccc2[nH]cc(C3=CCNCC3)c2c1 [RU24969]
Hill Coefficient (5-HT3 receptor; [3H]-GR65630 bound (0.2 nM)): 1.0

COc1cc(N)c(Cl)cc1C(=O)NC1CN2CCC1CC2 (stereo not shown) [Zacopride]
Hill Coefficient (5-HT3 receptor; [3H]-GR65630 bound (0.2 nM)): 0.86

O=c1[nH]c2ccccc2n1CCCN1CCC(n2c(=O)[nH]c3cc(Cl)ccc32)CC1 [domperidone]
Minimum Effective Dose (MED) (5-HT3): > 10 mg/kg

CCN(CC)CCNC(=O)c1cc(Cl)c(N)cc1OC [metoclopramide]
Minimum Effective Dose (MED) (5-HT3): 5 mg/kg

CN1[C@@H]2C[C@@H](OC(=O)[C@H](CO)c3ccccc3)C[C@H]1[C@@H]1O[C@@H]12 [scopolamine]
Minimum Effective Dose (MED) (5-HT3): 2.5 mg/kg
